Results reported in ChEMBL document CHEMBL1147247, “New cytotoxic sesterterpenoids and norsesterterpenoids from two sponges of the genus Sarcotragus” (2003).
≈ marks a conversion by molar mass, not a printed value.

Tests used:
Type in all cases: functional
Conditions in all cases: read-out: ED50 (the source's name)
SK-MEL-2 = assay: Cytotoxicity against human SK-MEL-2 cells
SK-OV-3 = assay: Cytotoxicity against human SKOV3 cells
HCT-15 = assay: Cytotoxicity against human HCT15 cells
A549 = assay: Cytotoxicity against human A549 cells
XF498 = assay: Cytotoxicity against human XF498 cells

Compound | EC50 (SK-MEL-2) [µg/mL] | EC50 (SK-OV-3) [µg/mL] | EC50 (HCT-15) [µg/mL] | EC50 (A549) [µg/mL] | EC50 (XF498) [µg/mL]
COc1cccc2c1C(=O)c1c(O)c3c(c(O)c1C2=O)C[C@@](O)(C(=O)CO)C[C@@H]3O[C@H]1C[C@H](N)[C@H](O)[C@H](C)O1 [DOXORUBICIN] | 0.06 (≈ 0.11 µM) | 0.15 (≈ 0.276 µM) | 0.24 (≈ 0.442 µM) | 0.04 (≈ 0.0736 µM) | 0.19 (≈ 0.35 µM)
COC1C=C(CCC/C(C)=C/C=C/[C@@H](C)CC/C=C(/C)C[C@H]2OC(=O)C(C)=C2O)C(=O)O1 (stereo not given in full) | 10.9 (≈ 24.5 µM) | > 30 | 33 (≈ 74.2 µM) | > 30 | > 30
CC1=C(O)[C@@H](C/C(C)=C\CC[C@H](C)/C=C/C=C(\C)CCCC2=CCN(CC(=O)[O-])C2=O)OC1=O.[Na+] [SARCOTRINE E] | > 30 | > 30 | > 30 | > 30 | > 30
CC1=C(O)[C@@H](C/C(C)=C\CC[C@H](C)/C=C/C=C(\C)CCCC2=CC(=O)N(CC(=O)[O-])C2)OC1=O.[Na+] [ISOSARCOTRINE E] | > 30 | > 30 | > 30 | > 30 | > 30
C/C(=C\CCc1ccoc1)C[C@@H]1C=C(C/C=C/c2ccoc2)C(=O)O1 | 4.5 (≈ 13.3 µM) | 32.3 (≈ 95.4 µM) | 4.2 (≈ 12.4 µM) | 7.9 (≈ 23.3 µM) | 11.8 (≈ 34.9 µM)
CC(=O)C(O)C(O)C/C(C)=C\CC[C@H](C)/C=C/C=C(\C)CCCC1=CC(=O)OC1O (stereo not given in full) [SARCOTIN O] | 3 (≈ 7.13 µM) | 14.9 (≈ 35.4 µM) | 4.6 (≈ 10.9 µM) | 6.8 (≈ 16.2 µM) | 11.5 (≈ 27.3 µM)
COC(=O)[C@H](O)C/C(C)=C\CC[C@H](C)/C=C/C=C(\C)CCCC1=CC(=O)O[C@H]1O [SARCOTIN N] | 10.9 (≈ 26.8 µM) | > 30 | 21.7 (≈ 53.4 µM) | 19.4 (≈ 47.7 µM) | > 30
